From patent US20080039438A1, “1B-Methylcarbapenem Derivative and Process for the Preparation Thereof” (Korea Institute of Science and Technology, priority 2004, published 2008)
In brackets after ≈: the same amount, converted by molar mass. Where two headings read alike, the source gives them in different places.

Experiments:
[1] = test system: Proteus mirabilis; assay: MIC against clinically isolated aerobic Gram-negative strains; type: cell-based; conditions: 15 strains
[2] = test system: Streptococcus faecium MD 8b; assay: MIC against standard strains (agar dilution); type: cell-based; conditions: Enterococcus faecium, MD8B, standard strain Streptococcus faecium MD 8b, 37° C., 18 to 20 hours, read-out: Minimum Inhibitory Concentration (MIC)
[3] = test system: Proteus vulgaris; assay: MIC against clinically isolated aerobic Gram-negative strains; type: cell-based; conditions: 15 strains
[4] = test system: Klebsiella aerogenes 1522E; assay: MIC against standard strains (agar dilution); type: cell-based; conditions: standard strain Klebsiella aerogenes 1522E, 37° C., 18 to 20 hours, read-out: Minimum Inhibitory Concentration (MIC)
[5] = test system: Enterobacter cloacae; assay: MIC against clinically isolated aerobic Gram-negative strains; type: cell-based; conditions: 29 strains
[6] = test system: Enterococcus faecium; assay: MIC against clinically isolated aerobic Gram-positive strains; type: cell-based
[7] = test system: Streptococcus pneumoniae; assay: as above; type: cell-based; conditions: 22 strains
[8] = test system: Pseudomonas aeruginosa 1592E; assay: MIC against standard strains (agar dilution); type: cell-based; conditions: standard strain Pseudomonas aeruginosa 1592E, 37° C., 18 to 20 hours, read-out: Minimum Inhibitory Concentration (MIC)
[9] = test system: Klebsiella oxytoca; assay: MIC against clinically isolated aerobic Gram-negative strains; type: cell-based; conditions: 15 strains
[10] = test system: Escherichia coli DC 0; assay: MIC against standard strains (agar dilution); type: cell-based; conditions: DC0, standard strain Escherichia coli DC 0, 37° C., 18 to 20 hours, read-out: Minimum Inhibitory Concentration (MIC)
[11] = test system: Staphylococcus aureus SG511; assay: MIC against standard strains (agar dilution); type: cell-based; conditions: standard strain Staphylococcus aureus SG511, 37° C., 18 to 20 hours, read-out: Minimum Inhibitory Concentration (MIC)
[12] = test system: Acinetobacter baumannii; assay: MIC against clinically isolated aerobic Gram-negative strains; type: cell-based; conditions: 30 strains
[13] = test system: Serratia marcescens; assay: as above; type: cell-based; conditions: 14 strains
[14] = test system: Enterococcus faecalis; assay: MIC against clinically isolated aerobic Gram-positive strains; type: cell-based; conditions: 30 strains
[15] = test system: Escherichia coli DC 2; assay: MIC against standard strains (agar dilution); type: cell-based; conditions: Escherichia coli, DC2, read-out: Minimum Inhibitory Concentration (MIC)
[16] = test system: Peptostreptococcus spp.; assay: MIC against clinically isolated anaerobic Gram-positive strains; type: cell-based; conditions: 27 strains
[17] = test system: Staphylococcus coagulase; assay: MIC against clinically isolated aerobic Gram-positive strains; type: cell-based; conditions: for MIC50 / MIC90: Staphylococcus; for MIC Range: clinically isolated Staphylococcus coagulase, 22 strains
[18] = test system: Escherichia coli TEM; assay: MIC against standard strains (agar dilution); type: cell-based; conditions: standard strain Escherichia coli TEM, 37° C., 18 to 20 hours, read-out: Minimum Inhibitory Concentration (MIC)
[19] = test system: Streptococcus pyogenes; assay: MIC against clinically isolated aerobic Gram-positive strains; type: cell-based; conditions: 15 strains
[20] = test system: Bacteroides thetaiotaomicron; assay: MIC against clinically isolated anaerobic Gram-negative strains; type: cell-based; conditions: for MIC50 / MIC90: Bacteroides thetaiotaomicron; for MIC Range: clinically isolated anaerobic Bacteroides thetaiotaomicron, 15 strains
[21] = Pharmacokinetics test in rats; type: in vivo, Sprague-Dawley rats; conditions: rat, intravenous, 20 mg/kg
Protocol: (§1) The pharmacokinetic behavior of the sodium 3-carboxylate compound of Example was determined as follows. Male Sprague-Dawley rats (weighing 250 g, 14-15 weeks old, 5 rats/group) and Beagle dogs (weighing 10 kg, 3 dogs/group) were maintained by feeding conventional hard food at identical conditions for more than 7 days. The test animals were fasted except water for more than 24 hours before tested. […] 500 μl of each blood sample was centrifuged at 12,000 rpm for 30 seconds, the supernatant was filtered through a 0.22 μm filter, and analyzed by HPLC/UV, and the result was listed in Table 7.

[22] = Pharmacokinetics test in dogs; type: in vivo, Beagle dogs; conditions: dog, intravenous, 5 mg/kg
Protocol: as §1

**Q.** For C[C@@H](O)[C@H]1C(=O)N2C(C(=O)O)=C(SCCN=CN)C[C@H]12 [IPM, Imipenem], which MIC50 [1] is on record?
**A.** 2 µg/mL (≈ 6.68 µM)

**Q.** What about the MIC90 [1] of the same compound?
**A.** 2 µg/mL (≈ 6.68 µM)

**Q.** And the “MIC Range” value [1]?
**A.** 0.25 to 4 µg/mL

**Q.** And the MIC [2]?
**A.** 0.781 µg/mL (≈ 2.61 µM)

**Q.** And the MIC50 [3]?
**A.** 1 µg/mL (≈ 3.34 µM)

**Q.** And the MIC90 [3]?
**A.** 2 µg/mL (≈ 6.68 µM)

**Q.** What about the “MIC Range” value [3] of the same compound?
**A.** 0.25 to 2 µg/mL

**Q.** What about the MIC [4] of the same compound?
**A.** 0.195 µg/mL (≈ 0.651 µM)

**Q.** What about the MIC50 [5] of the same compound?
**A.** 0.25 µg/mL (≈ 0.835 µM)

**Q.** What about the MIC90 [5] of the same compound?
**A.** 1 µg/mL (≈ 3.34 µM)

**Q.** What about the “MIC Range” value [5] of the same compound?
**A.** 0.12 to 1 µg/mL

**Q.** And the “MIC Range” value ([6]; clinically isolated Enterococcus faecium, 29 strains)?
**A.** 2 to 128 µg/mL

**Q.** And the MIC50 ([6]; clinically isolated Enterococcus faecium, 29 strains, read-out: MIC50)?
**A.** 128 µg/mL (≈ 428 µM)

**Q.** What about the MIC90 ([6]; clinically isolated Enterococcus faecium, 29 strains, read-out: MIC90) of the same compound?
**A.** 128 µg/mL (≈ 428 µM)

**Q.** What about the MIC50 [7] of the same compound?
**A.** 0.12 µg/mL (≈ 0.401 µM)

**Q.** And the MIC90 [7]?
**A.** 0.25 µg/mL (≈ 0.835 µM)

**Q.** And the “MIC Range” value [7]?
**A.** 0.008 to 0.5 µg/mL

**Q.** What about the MIC [8] of the same compound?
**A.** 0.781 µg/mL (≈ 2.61 µM)

**Q.** What about the MIC50 [9] of the same compound?
**A.** 0.12 µg/mL (≈ 0.401 µM)

**Q.** And the MIC90 [9]?
**A.** 0.5 µg/mL (≈ 1.67 µM)

**Q.** And the “MIC Range” value [9]?
**A.** 0.06 to 0.5 µg/mL

**Q.** What about the MIC [10] of the same compound?
**A.** 0.195 µg/mL (≈ 0.651 µM)

**Q.** And the MIC [11]?
**A.** 0.013 µg/mL (≈ 0.0434 µM)

**Q.** And the MIC50 [12]?
**A.** 1 µg/mL (≈ 3.34 µM)

**Q.** And the MIC90 [12]?
**A.** 8 µg/mL (≈ 26.7 µM)

**Q.** And the “MIC Range” value [12]?
**A.** 0.25 to 32 µg/mL

**Q.** And the MIC50 [13]?
**A.** 0.25 µg/mL (≈ 0.835 µM)

**Q.** What about the MIC90 [13] of the same compound?
**A.** 2 µg/mL (≈ 6.68 µM)

**Q.** What about the “MIC Range” value [13] of the same compound?
**A.** 0.12 to 4 µg/mL

**Q.** And the MIC50 [14]?
**A.** 1 µg/mL (≈ 3.34 µM)

**Q.** What about the MIC90 [14] of the same compound?
**A.** 4 µg/mL (≈ 13.4 µM)

**Q.** What about the “MIC Range” value [14] of the same compound?
**A.** 0.5 to 4 µg/mL

**Q.** And the MIC [15]?
**A.** 0.195 µg/mL (≈ 0.651 µM)

**Q.** What about the MIC50 [16] of the same compound?
**A.** 0.06 µg/mL (≈ 0.2 µM)

**Q.** And the MIC90 [16]?
**A.** 2 µg/mL (≈ 6.68 µM)

**Q.** And the “MIC Range” value [16]?
**A.** 0.06 to 2 µg/mL

**Q.** What about the MIC50 [17] of the same compound?
**A.** 0.015 µg/mL (≈ 0.0501 µM)

**Q.** What about the MIC90 [17] of the same compound?
**A.** 0.015 µg/mL (≈ 0.0501 µM)

**Q.** And the “MIC Range” value [17]?
**A.** 0.008 to 0.03 µg/mL

**Q.** And the MIC [18]?
**A.** 0.098 µg/mL (≈ 0.327 µM)

**Q.** What about the MIC50 [19] of the same compound?
**A.** < 0.008 µg/mL

**Q.** And the MIC90 [19]?
**A.** < 0.008 µg/mL

**Q.** And the “MIC Range” value [19]?
**A.** <0.008 µg/mL

**Q.** What about the MIC50 [20] of the same compound?
**A.** 0.5 µg/mL (≈ 1.67 µM)

**Q.** What about the MIC90 [20] of the same compound?
**A.** 4 µg/mL (≈ 13.4 µM)

**Q.** And the “MIC Range” value [20]?
**A.** 0.12 to 16 µg/mL

**Q.** Which results are given for C[C@@H](O)[C@H]1C(=O)N2C(C(=O)O)=C(S[C@@H]3CN[C@H](C(=O)N(C)C)C3)[C@H](C)[C@H]12 [MPM, meropenem]?
**A.** MIC50 [1]: 0.06 µg/mL (≈ 0.156 µM); MIC90 [1]: 0.06 µg/mL (≈ 0.156 µM); MIC Range [1]: 0.015 to 0.06 µg/mL; AUC [21]: 383 ± 36 µg·min/mL; CL [21]: 54.2 ± 5.3 mL/min/kg; T1/2 [21]: 4.0 ± 0.2 min; MIC [2]: 12.5 µg/mL (≈ 32.6 µM); MIC50 [3]: 0.06 µg/mL (≈ 0.156 µM); MIC90 [3]: 0.06 µg/mL (≈ 0.156 µM); MIC Range [3]: 0.03 to 0.06 µg/mL; MIC [4]: 0.049 µg/mL (≈ 0.128 µM); MIC50 [5]: 0.03 µg/mL (≈ 0.0782 µM); MIC90 [5]: 0.25 µg/mL (≈ 0.652 µM); MIC Range [5]: 0.015 to 0.5 µg/mL; MIC50 ([6]; Enterococcus faecium): 128 µg/mL (≈ 334 µM); MIC90 ([6]; Enterococcus faecium): 128 µg/mL (≈ 334 µM); MIC50 [7]: 0.5 µg/mL (≈ 1.3 µM); MIC90 [7]: 0.5 µg/mL (≈ 1.3 µM); MIC Range [7]: 0.008 to 0.5 µg/mL; MIC [8]: 0.098 µg/mL (≈ 0.256 µM); AUC ([22]; Beagle, supernatant of centrifuged blood): 11600 ng·h/mL; T1/2 [22]: 33 min; MIC50 [9]: 0.03 µg/mL (≈ 0.0782 µM); MIC90 [9]: 0.03 µg/mL (≈ 0.0782 µM); MIC Range [9]: 0.015 to 0.06 µg/mL; MIC [10]: 0.025 µg/mL (≈ 0.0652 µM); MIC [11]: 0.098 µg/mL (≈ 0.256 µM); MIC50 [12]: 1 µg/mL (≈ 2.61 µM); MIC90 [12]: 8 µg/mL (≈ 20.9 µM); MIC Range [12]: 0.25 to 64 µg/mL; MIC50 [13]: 0.03 µg/mL (≈ 0.0782 µM); MIC90 [13]: 8 µg/mL (≈ 20.9 µM); MIC Range [13]: 0.03 to 8 µg/mL; MIC50 [14]: 4 µg/mL (≈ 10.4 µM); MIC90 [14]: 16 µg/mL (≈ 41.7 µM); MIC Range [14]: 2 to 16 µg/mL; MIC [15]: 0.025 µg/mL (≈ 0.0652 µM); MIC50 [16]: 0.06 µg/mL (≈ 0.156 µM); MIC90 [16]: 4 µg/mL (≈ 10.4 µM); MIC Range [16]: 0.06 to 4 µg/mL; MIC50 [17]: 0.06 µg/mL (≈ 0.156 µM); MIC90 [17]: 0.12 µg/mL (≈ 0.313 µM); MIC Range [17]: 0.03 to 0.5 µg/mL; MIC [18]: 0.025 µg/mL (≈ 0.0652 µM); MIC50 [19]: < 0.008 µg/mL; MIC90 [19]: < 0.008 µg/mL; MIC Range [19]: <0.008 µg/mL; MIC50 [20]: 0.25 µg/mL (≈ 0.652 µM); MIC90 [20]: 0.5 µg/mL (≈ 1.3 µM); MIC Range [20]: 0.25 to 2 µg/mL
